In ChEMBL document CHEMBL5042512 (Eur J Med Chem, 2022):
pIC50: −log10 of the molar value.

Legend:
Assay type in all cases: functional, cell-based
MGC-803 = assay: Antiproliferative activity against human MGC-803 cells assessed as cell growth inhibition measured after 48 hrs by CCK8 assay; details: MGC-803, 48 h
KYSE-450 = assay: Antiproliferative activity against human KYSE-450 cells assessed as cell growth inhibition measured after 48 hrs by CCK8 assay; details: KYSE-450, 48 h
HCT-116 = assay: Antiproliferative activity against human HCT-116 cells assessed as cell growth inhibition measured after 48 hrs by CCK8 assay; details: HCT-116, 48 h

pIC50 (MGC-803) | pIC50 (HCT-116) | Structure (SMILES) | pIC50 (KYSE-450)
5.19 | 5.28 | COc1ccc(CN(C(=O)CSC(=S)N2CCCc3cc(C)ccc32)c2cc(OC)c(OC)c(OC)c2)cc1 | 5.28
– | 5.48 | COc1ccc(CN(C(=O)CSc2nc3ccccc3o2)c2cc(OC)c(OC)c(OC)c2)cc1 | 6.08
< 4.70 | < 4.70 | COc1ccc(CN(C(=O)CSC(=S)N2CCN(C(=O)OC(C)(C)C)CC2)c2ccc(OC)cc2)cc1 | < 4.70
4.89 | 5.07 | COc1cc(N(Cc2ccc(Cl)cc2)C(=O)CSC(=S)N2CCN(C(=O)OC(C)(C)C)CC2)cc(OC)c1OC | 4.92
< 4.70 | 5.30 | COc1ccc(CN(C(=O)CSC(=S)N2CCCC2)c2cc(OC)c(OC)c(OC)c2)cc1 | 4.86
4.77 | < 4.70 | COc1ccc(CN(C(=O)CN2CCOCC2)c2cc(OC)c(OC)c(OC)c2)cc1 | 4.72
5.02 | 4.74 | COc1ccc(CN(C(=O)CN2CCN(C(=O)OC(C)(C)C)CC2)c2cc(OC)c(OC)c(OC)c2)cc1 | 5.09
< 4.70 | 5.09 | COc1ccc(CN(C(=O)CSC(=S)N2CCc3cc(Br)ccc32)c2cc(OC)c(OC)c(OC)c2)cc1 | < 4.70
4.91 | 4.94 | COc1cc(N(Cc2ccc(Br)cc2)C(=O)CSC(=S)N2CCN(C(=O)OC(C)(C)C)CC2)cc(OC)c1OC | 4.97
5.09 | < 4.70 | COc1ccc(CN(C(=O)CSC(=S)N2CCCc3cc(OC)ccc32)c2cc(OC)c(OC)c(OC)c2)cc1 | 5.26
< 4.70 | < 4.70 | CCN1CCN(CC(=O)N(Cc2ccc(OC)cc2)c2cc(OC)c(OC)c(OC)c2)CC1 | 4.79
5.23 | 4.80 | COc1ccc(CN(C(=O)CSC(=S)N2CCc3ccccc3C2)c2cc(OC)c(OC)c(OC)c2)cc1 | < 4.70
6.09 | 6.11 | COc1ccc(CN(C(=O)CSC(=S)N2CCN(C(=O)OC(C)(C)C)CC2)c2cc(OC)c(OC)c(OC)c2)cc1N=[N+]=[N-] | 6.08
< 4.70 | < 4.70 | COc1ccc(CN(C(=O)CSC(=S)N2CCN(C(=O)OC(C)(C)C)CC2)c2ccccc2)cc1 | < 4.70
5.27 | 5.16 | COc1ccc(CN(C(=O)CSC(=S)N2CCN(Cc3ccc(C(C)(C)C)cc3)CC2)c2cc(OC)c(OC)c(OC)c2)cc1 | 5.67
< 4.70 | < 4.70 | COc1ccc(CN(C(=O)CSC(=S)N2CCN(C(=O)OC(C)(C)C)CC2)c2ccc(Cl)cc2)cc1 | < 4.70
4.78 | < 4.70 | COc1cc(N(Cc2ccc(C)cc2)C(=O)CSC(=S)N2CCN(C(=O)OC(C)(C)C)CC2)cc(OC)c1OC | < 4.70
4.93 | 5.01 | COc1ccc(CN(C(=O)CSC(=S)N2CCc3cc(OC)ccc32)c2cc(OC)c(OC)c(OC)c2)cc1 | 4.99
6.06 | 6.01 | COc1ccc(CN(C(=O)CSC(=S)N2CCN(C(=O)OC(C)(C)C)CC2)c2cc(OC)c(OC)c(OC)c2)cc1[N+](=O)[O-] | 6.09

pIC50 (MGC-803) | pIC50 (HCT-116) | Structure (SMILES) | pIC50 (KYSE-450)
5.00 | 5.11 | CCN1CCN(C(=S)SCC(=O)N(Cc2ccc(OC)cc2)c2cc(OC)c(OC)c(OC)c2)CC1 | 5.51
< 4.70 | < 4.70 | COc1ccc(CN(C(=O)CSC(=S)N2CCN(C(=O)OC(C)(C)C)CC2)c2ccc(C)cc2)cc1 | < 4.70
5.43 | 5.01 | COc1ccc(CN(C(=O)CSC(=S)N2CCN(C(=O)OC(C)(C)C)CC2)c2cc(OC)c(OC)c(OC)c2)cc1Br | 5.73
6.51 | 6.21 | COc1ccc(CN(C(=O)CSC(=S)N2CCN(C(=O)OC(C)(C)C)CC2)c2cc(OC)c(OC)c(OC)c2)cc1 | 6.60
6.32 | 5.86 | COc1ccc(CN(C(=O)CSC(=S)N2CCN(C(C)=O)CC2)c2cc(OC)c(OC)c(OC)c2)cc1 | 6.43
6.42 | 6.28 | CCN1CCN(C(=S)SCC(=O)N(Cc2ccc(OC)c(O)c2)c2cc(OC)c(OC)c(OC)c2)CC1 | 6.49
5.89 | 5.58 | COc1ccc(CN(C(=O)CSC(=S)N2CCN(C)CC2)c2cc(OC)c(OC)c(OC)c2)cc1 | 5.90
6.74 | 6.45 | COc1ccc(CN(C(=O)CSC(=S)N2CCN(C(=O)OC(C)(C)C)CC2)c2cc(OC)c(OC)c(OC)c2)cc1N | 6.68
< 4.70 | 4.80 | COc1cc(NC(=O)CSC(=S)N2CCN(C(=O)OC(C)(C)C)CC2)c(Cc2ccccc2)c(OC)c1OC | < 4.70
< 4.70 | < 4.70 | COc1ccc(CN(C(=O)CSC(=S)N2CCN(C(=O)OC(C)(C)C)CC2)c2ccc(Br)cc2)cc1 | < 4.70
6.51 | 6.11 | COc1ccc(CN(C(=O)CSC(=S)N2CCN(C(C)=O)CC2)c2cc(OC)c(OC)c(OC)c2)cc1O | 6.68
< 4.70 | < 4.70 | COc1ccc(CN(C(=O)CSC(=S)N2CCN(C(=O)OC(C)(C)C)CC2)c2cc(OC)c(OC)c(OC)c2)cc1C | < 4.70
< 4.70 | < 4.70 | COc1ccc(CN(C(=O)CSC(=S)N2CCN(C(=O)OC(C)(C)C)CC2)c2cc(OC)c(OC)c(OC)c2)cc1OC | < 4.70
5.63 | 5.38 | COc1ccc(CN(C(=O)CSC(=S)N2CCOCC2)c2cc(OC)c(OC)c(OC)c2)cc1 | 5.14
5.08 | 5.11 | COc1ccc(CN(C(=O)CSC(=S)N2CCc3ccccc32)c2cc(OC)c(OC)c(OC)c2)cc1 | 5.16
4.89 | < 4.70 | COc1ccc(CN(C(=O)CN2CCN(C(C)=O)CC2)c2cc(OC)c(OC)c(OC)c2)cc1 | 4.97
6.07 | 6.09 | COc1ccc(CN(C(=O)CSC(=S)N2CCN(C)CC2)c2cc(OC)c(OC)c(OC)c2)cc1O | 6.12
5.31 | 5.09 | COc1ccc(CN(C(=O)CSC(=S)N2CCN(C(=O)OC(C)(C)C)CC2)c2cc(OC)c(OC)c(OC)c2)cc1F | 5.62

Structure (SMILES) | pIC50 (MGC-803) | pIC50 (HCT-116) | pIC50 (KYSE-450)
COc1cc2c(c(OC)c1OC)-c1ccc(OC)c(=O)cc1[C@@H](NC(C)=O)CC2 [COLCHICINE] | 7.05 | – | 6.66
